In patent US20080274060A1, “Therapeutic Foam” (priority 2005, published 2008):

Test: In vitro absorption of foam/gas in fresh human venous blood
Type: in vitro ADME
Procedure: In vitro experiments were conducted to determine the absorption of foam made with different gases in fresh human venous blood.
A 20 ml polypropylene syringe barrel was prepared by puncturing its side wall with a relatively large hypodermic needle to make a hole approximately 1 mm in diameter. This hole was then covered by securing a piece of clear flexible vinyl sheet over it with clear adhesive tape. A small magnetic stirrer element was introduced into the syringe barrel and the plunger then replaced. 20 ml of human venous blood was then with withdrawn in the usual manner from a human subject using the specially prepared syringe fitted with a hypodermic needle.
The hypodermic needle was removed and the syringe then placed on a magnetic stirrer unit so that the magnetic element in the syringe thoroughly agitated the blood. The Luer nozzle of the syringe was then connected to a 50 cm piece of manometer tubing which was arranged horizontally and left open at one end. The manometer tubing was secured against a scale.
A 0.5 ml measuring syringe with a fine pre-fitted needle was then filled with foam made from 1% polidocanol solution and air.
The needle of the 0.5 ml syringe was then introduced through the vinyl sheet on the side wall of the 20 ml syringe. […] The 0.5 ml aliquot of foam was then injected quickly and simultaneously a timer started (t0). As the foam displaced blood in the 20 ml syringe, the column of blood from the 20 ml syringe was displaced into the manometer tubing and the distance along the tubing reached by the distal end of the blood column was noted against the scale. The scale itself comprised spaced marker lines equally spaced at about 1 cm intervals.
As the gas in the foam started to be absorbed by the blood, the blood in the manometer tubing started to recede back towards the syringe. After the column appeared to have stopped moving, the timer was stopped (tF). The position of the distal end was again noted.
In this experiment, the air foam test was only observed for a few minutes after tF. […] A 20 ml syringe of fresh human venous blood, as in the above experiments, was injected with a 0.5 ml aliquot of a foam containing a percentage of nitrogen. The contents of the syringe were agitated as above and a period of 24 hours allowed to elapse.

## O=O [Oxygen gas, oxygen gas]
0.5 ml aliquot in 20 ml blood
  Absorbed volume at tF: 0.46 mL
At tF
  Unabsorbed gas %: 8%
  Unabsorbed gas ml: 0.04 mL
Manometer scale intervals, 45 intervals approx. 0.5 ml
  Position of blood at tF ("z"): 5.5
Time until blood column stopped moving, 0.5 ml aliquot in 20 ml blood
  tF: 140 s
